These results are taken from patent US20050020576A1, “Kappa agonist compounds and pharmaceutical formulations thereof” (priority 1996, published 2005).

The target of data set [1] is cloned human kappa receptor (Homo sapiens, UniProt P41145). The experiment in a line: biochemical. Format: binding.

Where a name gives a salt, the structure may show the parent alone. Read-outs that look alike come from different tables or passages of the source.

Chain of cloned human kappa receptor (P41145 whole entry): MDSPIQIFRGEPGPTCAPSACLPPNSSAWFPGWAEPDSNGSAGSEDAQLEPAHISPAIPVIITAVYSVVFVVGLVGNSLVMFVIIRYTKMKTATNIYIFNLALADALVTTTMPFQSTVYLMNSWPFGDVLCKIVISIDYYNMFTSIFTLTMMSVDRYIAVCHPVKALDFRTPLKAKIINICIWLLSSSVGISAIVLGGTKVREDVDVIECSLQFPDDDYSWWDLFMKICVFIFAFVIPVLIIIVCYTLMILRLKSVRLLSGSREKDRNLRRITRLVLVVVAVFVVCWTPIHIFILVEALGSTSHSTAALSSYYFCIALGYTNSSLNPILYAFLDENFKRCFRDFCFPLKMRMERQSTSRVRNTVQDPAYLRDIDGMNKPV

Molecule `COc1cc(CC(=O)N(C)[C@H](CN2CC[C@H](O)C2)c2ccccc2)cc(OC)c1OC.Cl` registered a melting point of 230 to 232 °C.
On the same count and under the same terms, the figure for `Cl.NS(=O)(=O)N1CCN(C(=O)Cc2ccc(Cl)c(Cl)c2)[C@H](CN2CCCC2)C1` is 183 to 185 °C; for `CN(C(=O)Cc1ccccc1[N+](=O)[O-])[C@H](CN1CCCC1)c1cccc([N+](=O)[O-])c1` (as salt: HCl) it is 258 to 259 °C; for `CN(C(=O)Cc1ccccc1N)[C@H](CN1CCCC1)c1cccc(N)c1` (as salt: HCl) it is 219 to 222 °C.
As to `CN(C(=O)Cc1cc(Cl)c(Cl)cc1[N+](=O)[O-])[C@H](CN1CCCC1)c1cccc([N+](=O)[O-])c1` (as salt: HCl), the melting point was 165 °C (dec.).
Same read-out and setting: the figure for `CN(C(=O)Cc1ccc(S(C)(=O)=O)cc1)[C@H](CN1CCCC1)c1cccc([N+](=O)[O-])c1` (as salt: HCl) is 276 to 277 °C; for `CCCCOC(=O)Nc1ccc(CC(=O)N(C)[C@H](CN2CCCC2)c2cccc([N+](=O)[O-])c2)cc1` (as salt: HCl) it is 170 °C (dec.).
Same read-out and setting: next, `CN(C(=O)Cc1ccccc1NCC(=O)O)C1CCCCC1N1CCCC1` (stereo not shown) (as salt: HCl): 212 to 214 °C (dec.); `CN(C(=O)Cc1ccc(C(F)(F)F)cc1NCC(=O)O)C1CCCCC1N1CCCC1` (stereo not shown) (as salt: HCl): 178 to 180 °C (dec.); `CN(C(=O)Cc1ccc(N)cc1)[C@H](CN1CCCC1)c1cccc([N+](=O)[O-])c1` (as salt: HCl): 200 °C (dec.).
As for `CN(C(=O)Cc1ccc(OCc2ccccc2)c(NS(C)(=O)=O)c1)[C@H](CN1CCCC1)c1ccccc1` (as salt: HCl) [Example 123, 2-(3-N-Methylsulfonamido-3-amino-4-benzyloxyphenyl)-N-methyl-N-[(1S)-1-phenyl-2-(1-pyrrolidinyl)ethyl]acetamide], the melting point fell in the range of 219 to 221 °C.
The same measure, in the same setting: next, `CN(C(=O)Cc1ccc(O)c(NS(C)(=O)=O)c1)[C@H](CN1CCCC1)c1ccccc1` (as salt: HCl) [Example 124, 2-(3-N-Methylsulfonamido-3-amino-4-hydroxyphenyl)-N-methyl-N-[(1S)-1-phenyl-2-(1-pyrrolidinyl)ethyl]acetamide]: 228 to 230 °C; `CN(C(=O)Cc1ccccc1NS(C)(=O)=O)[C@H](CN1CC[C@H](O)C1)c1ccccc1` (as salt: HCl) [Example 125, 2-(2-N-Methylsulfonamido-2-aminophenyl)-N-methyl-N-[(1S)-1-phenyl-2-[1-(3S)-(3-hydroxypyrrolidinyl)ethyl]]acetamide]: 168 to 171 °C; `CN(C(=O)Cc1ccc(C(F)(F)F)cc1NS(C)(=O)=O)[C@H](CN1CC[C@H](O)C1)c1ccccc1` (as salt: HCl) [Example 126, 2-(2-N-Methylsulfonamido-2-amino-4-trifluoromethylphenyl)-N-methyl-N-[(1S)-1-phenyl-2-[1-(3S)-(3-hydroxypyrrolidinyl)ethyl]]acetamide]: 178 to 181 °C.
The same measure, in the same setting: the figure for `COc1ccc(CC(=O)N(C)[C@H](CN2CC[C@H](O)C2)c2ccccc2)cc1NS(C)(=O)=O` (as salt: HCl) [Example 127, 2-(3-N-Methylsulfonamido-3-amino-4-methoxyphenyl)-N-methyl-N-[(1S)-1-phenyl-2-[1-(3S)-(3-hydroxypyrrolidinyl)ethyl]]acetamide] is 148 to 151 °C; for `CN(C(=O)Cc1cc2c(cc1S(=O)(=O)N(C)C)OCO2)[C@H](CN1CCCC1)c1ccccc1` (as salt: HCl) [Example 132, 2-[2-(N-Dimethylsulfamoyl)-4,5-methylenedioxyphenyl]-N-methyl-N-[(1S)-1-phenyl-2-[(1-pyrrolidinyl)ethyl]]acetamide] it is 269 to 271 °C; for `COc1cc(CC(=O)N(C)[C@H](CN2CCCC2)c2ccccc2)c(S(=O)(=O)N2CCCC2)cc1OC` (as salt: HCl) [Example 134, 2-[2-(N-Pyrrolidinesulfamoyl)-4,5-dimethoxyphenyl]-N-methyl-N-[(1S)-1-phenyl-2-[(1-pyrrolidinyl)ethyl]]acetamide] it is 240 to 242 °C.
Still for that read-out and setting: the figure for `COc1cc(CC(=O)N(C)[C@H](CN2CCCC2)c2ccccc2)c(S(=O)(=O)N(C)C)cc1OC` (as salt: HCl) [Example 136, 2-[2-(N-Dimethylsulfamoyl)-4,5-dimethoxyphenyl]-N-methyl-N-[(1S)-1-phenyl-2-[(1-pyrrolidinyl)ethyl]]acetamide] is 246 to 248 °C; for `COc1cc(CC(=O)N(C)[C@H](CN2CCCC2)c2ccccc2)c(S(=O)(=O)N2CCN(C)CC2)cc1OC` (as salt: HCl) [Example 138] it is 255 to 257 °C (dec.); for `COc1cc(CC(=O)N(C)[C@H](CN2CC[C@H](O)C2)c2ccccc2)c(S(=O)(=O)N2CCN(C)CC2)cc1OC` (as salt: HCl) [Example 139] it is 168 to 171 °C.
`COc1cc(CC(=O)N(C)[C@H](CN2CCCC2)c2ccccc2)c(S(=O)(=O)N2CCOCC2)cc1OC` (as salt: HCl) [Example 140, 2-[2-N-(Morpholinesulfamoyl)-4,5-dimethoxyphenyl]-N-methyl-N-[(1S)-1-phenyl-2-[1-(pyrrolidinyl)ethyl]]acetamide] came in with a melting point of 229 to 231 °C.
Still for that read-out and setting: next, `COc1cc(CC(=O)N(C)[C@H](CN2CC[C@H](O)C2)c2ccccc2)c(S(=O)(=O)N2CCOCC2)cc1OC` (as salt: HCl) [Example 141, 2-[2-N-(Morpholinesulfamoyl)-4,5-dimethoxyphenyl]-N-methyl-N-[(1S)-1-phenyl-2-[1-(3S)-(3-hydroxypyrrolidinyl)ethyl]]acetamide]: 158 to 161 °C; `COc1cc(CC(=O)N(C)[C@H](CN2CCCC2)c2ccccc2)c(S(=O)(=O)N(C)CC(=O)O)cc1OC` (as salt: HCl) [Example 142, N-Methyl-[[2-(N-sulfamoyl)-4,5-dimethoxyphenyl]-N-methyl-N-[(1S)-1-phenyl-2-[1-(pyrrolidinyl)ethyl]]acetamido]glycine]: 231 to 233 °C (dec.); `COc1cc(CC(=O)N(C)[C@H](CN2CCCC2)c2ccccc2)c(S(=O)(=O)N(C)Cc2ccccc2)cc1OC` (as salt: HCl) [Example 148, 2-[2-(N-Benzyl-N-methylsulfamoyl)-4,5-dimethoxyphenyl]-N-methyl-N-[(1S)-1-phenyl-2-[(1-pyrrolidinyl)ethyl]]acetamide]: 188 to 189 °C.
Still for that read-out and setting: next, `CCOP(=O)(OCC)N1CCN(C(=O)Cc2ccc(Cl)c(Cl)c2)[C@H](CN2CCCC2)C1` (as salt: hydrochloride) [(R-3g), (R)-4-(Diethoxyphosphonate)-1-[(3,4-dichlorophenyl)acetyl]-2-[(1-pyrolidinyl)methyl]-piperazine hydrochloride]: 168 to 170 °C; `O=C(Cc1ccc(Cl)c(Cl)c1)N1CCN(C(=O)C(F)(F)F)C[C@H]1CN1CCCC1` (as salt: hydrochloride) [(R-3h), (R)-4-Trifluoroacetyl-1-(3,4-dichlorophenyl)acetyl]-2-[(1-pyrrolidinyl)methyl]-piperazine hydrochloride]: 145 to 147 °C.
On the same count and under the same terms, the figure for `Cc1ccc(S(=O)(=O)N2CCN(C(=O)Cc3ccc(Cl)c(Cl)c3)[C@H](CN3CCCC3)C2)cc1` (as salt: hydrochloride) [(R-3l), (R)-4-(4-Methyphenylsulfonyl)-1-[(3,4-dichlorophenyl)acetyl]-2-[(1-Pyrrolidinyl)methyl]-piperazine hydrochloride] is 240 °C (dec.); for `CS(=O)(=O)O[C@H]1CCN(CC2CN(S(C)(=O)=O)CCN2C(=O)Cc2ccc(Cl)c(Cl)c2)C1` (stereo partly drawn) (as salt: hydrochloride) [Example 1jj, 4-Methanesulfonyl-1-[(3,4-dichlorophenyl)acetyl]-2-(R,S)-[3-(S)-methanesulfonate-1-(pyrrolidinyl)methyl]piperazine hydrochloride] it is 130 to 132 °C; for `CN(C(=O)Cc1ccc(C(F)(F)F)cc1NCC(=O)O)[C@H](CN1CCCC1)c1ccccc1` (as salt: hydrochloride) [Example 3b, N-[(4-Trifluoromethylphenyl)-N-methyl-N-{[1S]-1-phenyl-2-[1-pyrrolidinyl)]ethyl}acetamido]glycine hydrochloride] it is 228 to 230 °C (dec.).
Consider `COc1cc(CC(=O)N(C)[C@H](CN2CCCC2)c2ccccc2)c(S(=O)(=O)N2CCOCC2)cc1OC` [Example 140, 2-[2-N-(Morpholinesulfamoyl)-4,5-dimethoxyphenyl]-N-methyl-N-[(1S)-1-phenyl-2-[1-(pyrrolidinyl)ethyl]]acetamide], for which the Ki in data set [1] (Ki (nM) [3H]-Diprenorphin κ) amounted to 0.56 nM.
The same measure, in the same setting: the figure for `COc1cc(CC(=O)N(C)[C@H](CN2CCCC2)c2ccccc2)c(S(=O)(=O)N(C)CC(=O)O)cc1OC` [Example 142, N-Methyl-[[2-(N-sulfamoyl)-4,5-dimethoxyphenyl]-N-methyl-N-[(1S)-1-phenyl-2-[1-(pyrrolidinyl)ethyl]]acetamido]glycine] is 13 nM.
Regarding `COc1cc(CC(=O)N(C)[C@H](CN2CCCC2)c2ccccc2)c(S(=O)(=O)NC(C)(C)C)c(OC)c1OC` [Example 144, 2-[2-(N-t-Butylsulfamoyl)-3,4,5-trimethoxyphenyl]-N-methyl-N-[(1S)-1-phenyl-2-[(1-pyrrolidinyl)ethyl]]acetamide], the Ki in data set [1] (read-out: Ki(nM) [3H]-Diprenorphin κ) worked out at 0.17 nM.
As for `COc1cc(CC(=O)N(C)[C@H](CN2CCCC2)c2ccccc2)c(S(=O)(=O)N(C)Cc2ccccc2)cc1OC` [Example 148, 2-[2-(N-Benzyl-N-methylsulfamoyl)-4,5-dimethoxyphenyl]-N-methyl-N-[(1S)-1-phenyl-2-[(1-pyrrolidinyl)ethyl]]acetamide], the Ki in data set [1] (Ki (nM) [3H]-Diprenorphin κ) stood at 0.83 nM.
Regarding “(±)-trans-3-N-Methyl-N-[2-(1-pyrrolidinyl)cyclohexyl]-(trans-3-furyl)acetamide hydrochloride [Example 4f]”, the “[3H]-Diprenorphin, % @ 1 μM” value in data set [1] was determined as 0% @ 1 μM.

Usually melting point stands for the temperature, or range, at which the solid turns liquid. A word on the Ki: it is the dissociation constant of the complex between target and ligand, obtained from inhibition or displacement.
